From patent publication US7029652B2, “Method of treating tumors” (The Regents of the University of California, priority 1998, dated 2006)

Key:
[1] = tested on: HBT 3477 cells; test: Attachment of HBT 3477 cells to vitronectin; type: cell-based, human; settings: read-out: IC50 for blocking attachment of HBT 3477 cells to vitronectin
Source text: Cell Lines. HBT 3477, a human breast adenocarcinoma cell line, was obtained from Bristol-Myers Squibb Pharmaceutical Research Institute (Seattle, Wash.). Greater than 70% of HBT 3477 cells stain intensely with L6. In HBT 3477 cells, bcl-2 is expressed and p53 is mutant, with a nonsense mutation in exon 10, resulting in a deletion in the region of the p53 protein that functions in tetramerization and in detection of double-stranded DNA breaks. HBT 3477 cells express functional αvβ5 integrin, but not αvβ3 integrin, as attachment to vitronectin is blocked by αvβ5-specific P1F6 antibody, but is not blocked by αvβ3-specific LM609 antibody.

[2] = tested on: HBT 3477 tumors; test: Tumoricidal effect in HBT 3477 breast cancer xenografts; type: in vivo, mice
Procedure: Mice. Female athymic Balb/c nu/nu mice (7–10 week old; Harlan Sprague Dawley, Inc., Frederick, Md.) were maintained according to University of California animal care guidelines. HBT 3477 cells (3.0×10^6), harvested in log phase, were injected subcutaneously into one side of the abdomen for therapy studies (except where noted) and into both sides for immunopathology studies. Injection of RIT was by tail vein and cyclo-(Arg-Gly-Asp-D-Phe-[N-Me]-Val) was delivered by intraperitoneal (i.p.) injection. “Day 0” was designated as the time of RIT injection or, for first cRGD pentapeptide injection, for cRGD pentapeptide only group. Mice were sacrificed by cervical dislocation for immunopathology studies at the times indicated, when tumor burden exceeded allowed limits, or at 84 days for therapy studies.
Control (No RIT) Treatment groups.
High Dose RIT Treatment groups.
Low Dose RIT Treatment groups. […] These doses were given on day 0, 1 hour prior to RIT, followed by 5 more doses on days 2, 4, 6, 8, and 10 (30 mice, all with 1 tumor each).
Tumoricidal effect. Tumors were measured with calipers in 3 orthogonal diameters 3 times per week. Tumor volume was calculated using the formula for hemiellipsoids (DeNardo et al. Clin. Cancer Res., 3:71–79 (1997)). Initial tumor volume was defined as the volume on the day before treatment. Tumors that completely regressed were considered to have a volume of zero. […] For mice bearing two tumors with differing responses, tumor response was described according to both tumor responses. Mice dying prior to 30 days from toxicity were excluded from tumor response results.
(§1) Statistical Analysis. Statistical analysis of mortality data for RIT and CMRIT method treated mice was performed using a Fisher Exact test with StatExact software to determine if mortality was different. Statistical analysis of therapy data was done using a Cochran Mantel Haenszel test to evaluate effect of RIT dose on outcome for RIT and CMRIT method groups. Comparison of cure rates to all other responses for RIT vs. CMRIT method groups was done by Fisher Exact test, with the best tumor response used for 2-tumored animals for statistical purposes. Statistical differences between immunopathology groups at the different time points were assessed by analysis of variance (ANOVA) (Fisher PLSD) using STATview software as appropriate, with p<0.05 considered significant.

[3] = tested on: HBT 3477 tumors; test: TUNEL analysis of total cell apoptosis in tumors; type: in vivo, mice
Procedure: (§2) Cellular immunopathology groups. Unless otherwise noted, groups consisted of 2 mice, each bearing 2 tumors, for a total of 4 tumors analyzed at each time point. […] The tumors were removed, cut in half, frozen in optimal cutting temperature (O.C.T). medium, and stored at about −70° C. until sectioning (10-μm sections). All time points were evaluated for apoptosis by terminal deoxynucleotidyl transferase-mediated dUTP nick end labeling (TUNEL, Cavrieli, et al. J. Cell Bio., 119: 493–501 (1992)) analysis, and selected time points (untreated, 1,5 and 6 days) were assessed for differences in proliferation rate (Ki67) and microvessel density (CD31).
TUNEL analysis of total and endothelial apoptosis. Tumors were cut into 10-μm sections onto Fisher superplus slides (Fisher, Pittsburgh, Pa.), air-dried for 1 hour and frozen at about −70° C. until TUNEL analysis with ApopTag Red kit (rhodamine used as label, Intergen, Purchase, N.Y.) following the manufacturer's instructions subsequent to fixation for about 10 minutes in 1% paraformadehyde. After TUNEL, the slides were rinsed, and incubated overnight at 4° C. with a rat anti-mouse MAb against CD31 at 1:100 dilution (Pharmingen, San Diego, Calif.) to identify endothelial cells. Slides were rinsed and incubated for 1 hour with an anti-rat antibody linked to FITC (1:50 dilution) (Pharmingen). Slides were rinsed, dipped briefly in 4,6-diamidino-2-phenylindole (DAPI, 0.2 μg/ml) for background nuclear stain, rinsed again and mounted, followed by storage in the dark at about 4° C. until quantitation.
Quantitation of total apoptosis and endothelial apoptosis. An Olympus microscope equipped with a Chroma Pinkle Filter Set (Chroma, Brattleboro, Vt.) with excitation filters for UV, FITC and rhodamine and dual/triple bandpass filters to allow simultaneous viewing of multiple wavelengths, was used to quantify 6 randomly chosen X600 fields (150,000 μm^2/field) in non-necrotic regions of each section. Fields were chosen to cover the entire viewing area using DAPI label, which typically included about 300–350 cells. Total apoptosis was determined by the average number of positive nuclei per field for each tumor while endothelial apoptosis was determined using the same fields with a dual bandpass filter to count cells labeled by both FITC (CD31) and rhodamine (TUNEL). Fields were chosen from apparently non-necrotic areas of tumor sections, as HBT 3477 xenografts typically grow quickly in nude mice, doubling their volumes in 6 days, resulting in central necrosis of untreated tumors. As TUNEL may label necrotic cells, though less intensely, this strategy was chosen over a completely random process.

[4] = tested on: endothelial cells in HBT 3477 tumors; test: TUNEL/CD31 analysis of endothelial apoptosis in tumors; type: in vivo, mice
Procedure: as §2
TUNEL analysis of total and endothelial apoptosis. […] Slides were rinsed, dipped briefly in 4,6-diamidino-2-phenylindole (DAPI, 0.2 μg/ml) for background nuclear stain, rinsed again and mounted, followed by storage in the dark at about 4° C. until quantitation.
Quantitation of total apoptosis and endothelial apoptosis. An Olympus microscope equipped with a Chroma Pinkle Filter Set (Chroma, Brattleboro, Vt.) with excitation filters for UV, FITC and rhodamine and dual/triple bandpass filters to allow simultaneous viewing of multiple wavelengths, was used to quantify 6 randomly chosen X600 fields (150,000 μm^2/field) in non-necrotic regions of each section. […]

[5] = tested on: HBT 3477 tumors; test: Proliferation (Ki67) in tumors; type: in vivo, mice
Procedure: as §2
(§3) Proliferation and microvessel density Analyses. 10-μm sections of tumors from untreated and mice treated with cRGD pentapeptide, RIT and CMRIT method and sacrificed at 1, 5 and 6 days after treatment were fixed for 10 minutes in ice-cold acetone, rinsed in PBS, and briefly incubated in methanol with 0.6% H2O2 (5 minutes). After rinsing in PBS, sections were blocked for 10 minutes with 10% goat serum and 1% bovine serum albumin in PBS. Mouse anti-Ki67 MAb (Pharmingen, clone B56) was applied in blocking solution (6.25 μg/ml) and the slides were incubated at room temperature for 2 hours, followed by rinsing in PBS. Goat anti-mouse rhodamine-labeled or goat anti-mouse Cy-3-labeled antibody was applied (Jackson ImmunoResearch Laboratories, Inc, West Grove, Pa., 1:100) and the slides were incubated for 1 hour at room temperature. After rinsing in PBS the sections were incubated for 1 hour at room temperature with rat anti-mouse CD31 antibody (Pharmingen, 1:100), followed by rinsing in PBS and a subsequent 1 hour incubation with goat anti-rat FITC-labeled antibody (Pharmingen, 1:50). After rinsing in PBS, the slides were counterstained with DAPI (0.4 μg/ml) and mounted in Biomeda gel mount (Fisher) under coverslips. Quantitation of Ki67 was performed using an Olympus microscope at X1000 magnification for assessment of proliferation. The mean total number of Ki67-positive cells/field in a tumor was determined by counts from 6 fields per tumor chosen randomly by DAPI stain. Microvessel density was determined by counting the number of CD31-stained vessels per random field at X400 magnification. Any endothelial cell or cell cluster positive for CD31, which was separate from an adjacent cluster, was counted as one microvessel. Six randomly chosen fields per tumor section were used to establish an average for each tumor. Average microvessel density for a treatment group was determined by averaging the values from 4 tumors/group.

[6] = tested on: αvβ3-expressing M21 melanoma cells; settings: stated in words; cited from earlier work
[7] = tested on: HBT 3477 tumors; test: Microvessel density (CD31) in tumors; type: in vivo, mice
Procedure: as §2, §3

[8] = Toxicity: mortality, weights and blood counts; type: in vivo
Procedure: Toxicity. Weights and blood counts were measured 2–3 times per week for 12 weeks post-injection or until death. Blood samples were collected from tail veins using 2 μL microcapillary pipets. Samples from mice within a dose group were pooled, and diluted 1:200 in phosphate-buffered saline (PBS, 0.9% saline/10 mM sodium phosphate, pH 7.6) for red blood cell (RBC) counts; 1:100 in 1% (w/v) ammonium oxalate for platelet counts; or 1:20 in 3% (w/v) acetic acid for white blood cell (WBC) counts.
as §1

[9] = tested on: HBT 3477 cells; test: HBT 3477 cell binding radioimmunoreactive assay (RIA); design: species or system human
Source text: ^90Y-DOTA-peptide-ChL6. ChL6 was conjugated to 1,4,7,10-tetraazacyclododecane-N,N′,N″,N′″-tetraacetic acid (DOTA) and radiolabeled with ^90Y as described by DeNardo, et al. J. Nucl. Med., 36:829–836, with greater than or equal to 80 percent efficiency to prepare ^90Y-DOTA-peptide-ChL6. ^90Y-DOTA-peptide-ChL6 was examined for structural and functional integrity by molecular sieving high performance liquid chromatography (HPLC), cellulose acetate electrophoresis (CAE), and HBT 3477 cell binding radioimmunoreactive assay (RIA). […] Immunoreactive binding to live cells indicated greater than 92% reactivity; administration as a single dose of 200, 230 or 260 […] ^90Y-DOTA-peptide-ChL6.

[10] = tested on: HBT 3477 tumors; settings: 250 μg provided 1 hour before RIT; cited from earlier work
[11] = Day 1, six fields per tumor at 1000X
[12] = Day 1, six fields per tumor at 400X
[13] = comparison as stated in the sentence
[14] = combined RIT 200–260 μCi, best response (parentheses)
[15] = combined RIT 200–260 μCi, worst response
[16] = high dose RIT 260 μCi, best response (parentheses)
[17] = high dose RIT 260 μCi, worst response
[18] = low dose RIT, best response (parentheses)

CC(C)[C@H]1C(=O)N[C@@H](CCCN=C(N)N)C(=O)NCC(=O)N[C@@H](CC(=O)O)C(=O)N[C@H](Cc2ccccc2)C(=O)N1C [cyclo-(Arg-Gly-Asp-D-Phe-[N-Me]-Val)]
IC50 [1]: ~5 µM | effect on tumor growth ([2]; 6×250 μg doses given every other day, in words): No apparent effect | cures ([2]; no RIT, 6 × 250 μg i.p.): 0% | CR complete regression (number of mice) ([2]; no RIT, worst response): 0 | NR no regression (number of mice) ([2]; no RIT, worst response): 18 | PR partial regression (number of mice) ([2]; no RIT, worst response): 0 | Cure (number of mice) ([2]; no RIT, worst response of 2-tumored mice, 84 days): no cures | Cure (number of mice) ([2]; no RIT, worst response of 2-tumored mice, 84 days, listed as cRGD pentapeptide): 0 | total cell apoptosis, percent of cells ([3]; 1 day after treatment): 4.6% | TUNEL-positive tumor and endothelial cells (total cells) ([3]; 1 day after treatment, X600, about 350 cells/field): 16.2±1.89 cells/field | endothelial apoptosis ([4]; 1 day after treatment): 2.5±0.5 cells/field | endothelial apoptosis ([4]; 5 days after treatment): 2.4±0.7 cells/field | Proliferating cells, average no. of Ki67-positive cells [5, 11]: 14 ± 2 f | Proliferating cells, average no. of Ki67-positive cells ([5]; Day 5): 13 ± 1 f | IC50 for αvβ3-expressing M21 melanoma cells [6]: low micromolar range | Microvessel density, average number ± SE of CD31 positive regions [7, 12]: 12 ± 2 | Microvessel density, average number ± SE of CD31 positive regions ([7]; Day 5): 20 ± 4 | mortality or toxicity, in words [8, 13]: No increased mortality or toxicity

^90Y-1,4,7,10-tetraazacyclododecane-N,N′,N″,N′″-tetraacetic acid-peptide-ChL6 [RIT]
CR complete regression (number of mice) [2, 14]: 10 | Cure (number of mice) [2, 14]: 9 | NR no regression (number of mice) [2, 14]: 0 | PR partial regression (number of mice) [2, 14]: 27 | CR complete regression (number of mice) [2, 15]: 6 | NR no regression (number of mice) [2, 15]: 3 | PR partial regression (number of mice) [2, 15]: 29 | cure rate ([2]; combined low and high dose RIT): 20% | Cure (number of mice) ([2]; combined low and high dose RIT 200–260 μCi, worst response): 8 | Cure (number of mice) ([2]; high dose RIT 260 μCi (CMRIT + cRGD 250 μg × 6), worst response): 4 | CR complete regression (number of mice) [2, 16]: 6 | PR partial regression (number of mice) [2, 16]: 16 | CR complete regression (number of mice) [2, 17]: 2 | NR no regression (number of mice) [2, 17]: 0 | PR partial regression (number of mice) [2, 17]: 20 | cures ([2]; high dose RIT (260 μCi)): 15% | Cure (number of mice) ([2]; low dose RIT 200–230 μCi (CMRIT 200 μCi + cRGD 250 μg × 6), worst response): 4 | Cure (number of mice) ([2]; low dose RIT 200–230 μCi, best response (parentheses)): 5 | cures ([2]; low dose RIT (200–230 μCi)): 25% | NR no regression (number of mice) [2, 18]: 0 | PR partial regression (number of mice) [2, 18]: 11 | CR complete regression (number of mice) ([2]; low dose RIT, worst response): 4 | NR no regression (number of mice) ([2]; low dose RIT, worst response): 3 | PR partial regression (number of mice) ([2]; low dose RIT, worst response): 9 | Immunoreactive binding to live cells, reactivity [9]: greater than 92% | TUNEL-positive tumor and endothelial cells (total cells) ([3]; 6 days): 21.4±2.9 cells/field | total cell apoptosis, percent of cells ([3]; 6 days): 6.1% | Proliferating cells, average no. of Ki67-positive cells [5, 11]: 18 ± 1 | Proliferating cells, average no. of Ki67-positive cells ([5]; Day 5): 13 ± 1 f | Proliferating cells, average no. of Ki67-positive cells ([5]; Day 6): 7 ± 1 | Microvessel density, average number ± SE of CD31 positive regions [7, 12]: 15 ± 1 | Microvessel density, average number ± SE of CD31 positive regions ([7]; Day 5): 13 ± 1 | Microvessel density, average number ± SE of CD31 positive regions ([7]; Day 6): 9 ± 1 e | weight, RBC, WBC and platelet counts, in words [8, 13]: decreased weight, RBC, WBC and platelet counts | mortality ([8]; high dose RIT (260 μCi)): 33% | mortality ([8]; low dose RIT (200–230 μCi)): 29%

cyclo-(Arg-Gly-Asp-D-Phe-1-aminocyclohexane carboxylic acid) [EMD 270179]
increased uptake of RIT by HBT 3477 tumors [10]: up to 50%
